In US7772180B2, “Hepatitis C virus inhibitors” (Bristol-Myers Squibb Company, priority 2006, dated 2010):
Where two headings read alike, the source gives them in different places.

Key:
[1] = system: HCV replicon (strain 1b) in HUH-7 cells; test: HCV replicon FRET assay; assay type: cell-based, Hepatitis C virus
Source text: An HCV replicon whole cell system was established as described by Lohmann V, Korner F, Koch J, Herian U, Theilmann L, Bartenschlager R., Science 285(5424): 110-3 (1999). This system enabled us to evaluate the effects of our HCV Protease compounds on HCV RNA replication. Briefly, using the HCV strain 1b sequence described in the Lohmann paper (Assession number: AJ238799), an HCV cDNA was synthesized by Operon Technologies, Inc. (Alameda, Calif.), and the full-length replicon was then assembled in plasmid pGem9zf(+) (Promega, Madison, Wis.) using standard molecular biology techniques. The replicon consists of (i) the HCV 5′ UTR fused to the first 12 amino acids of the capsid protein, (ii) the neomycin phosphotransferase gene (neo), (iii) the IRES from encephalomyocarditis virus (EMCV), and (iv) HCV NS3 to NS5B genes and the HCV 3′ UTR. Plasmid DNAs were linearized with ScaI and RNA transcripts were synthesized in vitro using the T7 MegaScript transcription kit (Ambion, Austin, Tex.) according to manufacturer's directions. In vitro transcripts of the cDNA were transfected into the human hepatoma cell line, HUH-7. […] Resulting cell lines were characterized for positive and negative strand RNA production and protein production over time.
The HCV replicon FRET assay was developed to monitor the inhibitory effects of compounds described in the disclosure on HCV viral replication. HUH-7 cells, constitutively expressing the HCV replicon, were grown in Dulbecco's Modified Eagle Media (DMEM) (Gibco-BRL) containing 10% Fetal calf serum (FCS) (Sigma) and 1 mg/ml G418 (Gibco-BRL). Cells were seeded the night before (1.5×10^4 cells/well) in 96-well tissue-culture sterile plates. Compound and no compound controls were prepared in DMEM containing 4% FCS, 1:100 Penicillin/Streptomysin (Gibco-BRL), 1:100 L-glutamine and 5% DMSO in the dilution plate (0.5% DMSO final concentration in the assay). Compound/DMSO mixes were added to the cells and incubated for 4 days at 37° C. After 4 days, cells were first assessed for cytotoxicity using alamar Blue (Trek Diagnotstic Systems) for a CC50 reading. The toxicity of compound (CC50) was determined by adding 1/10th volume of alamarBlue to the media incubating the cells. After 4 hours, the fluorescence signal from each well was read, with an excitation wavelength at 530 nm and an emission wavelength of 580 nm, using the Cytofluor Series 4000 (Perspective Biosystems). Plates were then rinsed thoroughly with Phosphate-Buffered Saline (PBS) (3 times 150 μl).

[2] = biological target: T1, HCV NS3/4A protease complex, BMS strain (UniProt P27958, species not given/STRAIN_BMS); test: FRET peptide assay to monitor HCV NS3/4A proteolytic activity (BMS strain); assay type: biochemical, Hepatitis C virus (genotype 1a)
T1 construct: other: NS3/4A BMS strain; activity range class; numeric values, unit not given; said of H77 and J4L6S; fused on or other part: A three-lysine solubilising tail at the C-terminus of NS4A; A His tag is implied by the pET21b vector and Ni-NTA purification; Both are printed for the H77 and J4L6S constructs and apply to BMS by inference
T1 sequence (P27958 1027-1657, change not shown, one chain of several): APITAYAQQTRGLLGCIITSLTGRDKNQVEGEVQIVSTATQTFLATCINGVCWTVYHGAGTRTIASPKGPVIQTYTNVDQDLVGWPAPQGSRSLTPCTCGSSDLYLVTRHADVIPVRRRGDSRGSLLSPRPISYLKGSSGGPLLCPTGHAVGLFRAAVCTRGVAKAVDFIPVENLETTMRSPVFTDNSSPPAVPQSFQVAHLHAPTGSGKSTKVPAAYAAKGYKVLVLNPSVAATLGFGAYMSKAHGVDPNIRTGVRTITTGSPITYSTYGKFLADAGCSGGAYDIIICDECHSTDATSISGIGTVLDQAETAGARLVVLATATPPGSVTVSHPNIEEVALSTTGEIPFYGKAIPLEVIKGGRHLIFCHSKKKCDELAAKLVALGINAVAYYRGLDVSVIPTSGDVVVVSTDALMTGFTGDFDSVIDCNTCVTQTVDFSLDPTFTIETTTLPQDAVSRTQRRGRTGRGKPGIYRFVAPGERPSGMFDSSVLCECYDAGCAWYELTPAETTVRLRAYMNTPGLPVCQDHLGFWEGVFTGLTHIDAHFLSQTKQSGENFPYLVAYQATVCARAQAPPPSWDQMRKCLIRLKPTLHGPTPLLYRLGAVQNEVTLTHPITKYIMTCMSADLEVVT
Source text: HCV NS3 protease complexes, derived from the BMS strain, H77 strain or J4L6S strain, were generated, as described below. These purified recombinant proteins were generated for use in a homogeneous assay (see below) to provide an indication of how effective compounds of the present disclosure would be in inhibiting HCV NS3 proteolytic activity.
Serum from an HCV-infected patient was obtained from Dr. T. Wright, San Francisco Hospital. An engineered full-length cDNA (compliment deoxyribonucleic acid) template of the HCV genome (BMS strain) was constructed from DNA fragments obtained by reverse transcription-PCR (RT-PCR) of serum RNA (ribonucleic acid) and using primers selected on the basis of homology between other genotype 1a strains. From the determination of the entire genome sequence, a genotype 1a was assigned to the HCV isolate according to the classification of Simmonds et al. (See P Simmonds, K A Rose, S Graham, S W Chan, F McOmish, B C Dow, E A Follett, P L Yap and H Marsden, J. Clin. Microbiol., 31(6), 1493-1503 (1993)). […] The infectious clones, H77 (1a genotype) and J4L6S (1b genotype) were obtained from R. Purcell (NIH) and the sequences are published in Genbank (AAB67036, see Yanagi, M., Purcell, R. H., Emerson, S. U. and Bukh, J. Proc. Natl. Acad. Sci. U.S.A. 94(16), 8738-8743 (1997); AF054247, see Yanagi, M., St Claire, M., Shapiro, M., Emerson, S. U., Purcell, R. H. and Bukh, J. Virology 244 (1), 161-172. (1998)).
NS3/4A protease complex-containing fractions were pooled and loaded on a desalting column Superdex-S200 pre-equilibrated with buffer D (25 mM HEPES, pH 7.5, 20% glycerol, 300 mM NaCl, 0.2% Triton X-100, 10 mM βME). Sample was loaded at a flow rate of 1 mL/min. NS3/4A protease complex-containing fractions were pooled and concentrated to approximately 0.5 mg/ml. The purity of the NS3/4A protease complexes, derived from the BMS, H77 and J4L6S strains, were judged to be greater than 90% by SDS-PAGE and mass spectrometry analyses. The enzyme was stored at −80° C., thawed on ice and diluted prior to use in assay buffer.
The purpose of this in vitro assay was to measure the inhibition of HCV NS3 protease complexes, derived from the BMS strain, H77 strain or J4L6S strain, as described above, by compounds of the present disclosure. This assay provides an indication of how effective compounds of the present disclosure would be in inhibiting HCV NS3 proteolytic activity.
In order to monitor HCV NS3/4A protease activity, an NS3/4A peptide substrate was used. The substrate was RET S1 (Resonance Energy Transfer Depsipeptide Substrate; AnaSpec, Inc. cat #22991) (FRET peptide), described by Taliani et al. in Anal. Biochem. 240(2):60-67 (1996). The sequence of this peptide is loosely based on the NS4A/NS4B natural cleavage site for the HCV NS3 protease except there is an ester linkage rather than an amide bond at the cleavage site. The peptide also contains a fluorescence donor, EDANS, near one end of the peptide and an acceptor, DABCYL, near the other end. The fluorescence of the peptide is quenched by […] resonance energy transfer (RET) between the donor and the acceptor, but as the NS3 protease cleaves the peptide the products are released from RET quenching and the fluorescence of the donor becomes apparent.
The peptide substrate was incubated with one of the three recombinant NS3/4A protease complexes, in the absence or presence of a compound of the present disclosure. The inhibitory effects of a compound were determined by monitoring the formation of fluorescent reaction product in real time using a Cytofluor Series 4000.
Assay buffer: 50 mM HEPES, pH 7.5; 0.15 M NaCl; 0.1% Triton; 15% Glycerol; 10 mM βME. Substrate: 2 μM final concentration (from a 2 mM stock solution in DMSO stored at −20° C.). HCV NS3/4A protease type 1a (1b), 2-3 nM final concentration (from a 5 μM stock solution in 25 mM HEPES, pH 7.5, 20% glycerol, 300 mM NaCl, 0.2% Triton-X100, 10 mM βME). […]

[3] = Hepatitis C virus, Huh-7, read-out: HCV Pro Replicon (EC50), HCV replicon cell assay, activity range class
[4] = read-out: HCV Protease (IC50); NS3/4A BMS strain; activity range class
[5] = Hepatitis C virus, Huh-7, read-out: HCV Pro Replicon (EC50), HCV replicon cell assay, numeric values, unit inferred
[6] = read-out: HCV Protease (IC50); NS3/4A BMS strain; numeric values, unit inferred
[7] = read-out: HCV Pro Replicon (EC50), HCV replicon cell assay, activity range class

C=C[C@@H]1C[C@]1(NC(=O)[C@@H]1C[C@@H](Oc2nccc3cc(OC)ccc23)CN1C(=O)C(Nc1cc(C)cc(C)n1)C(C)C)C(=O)NS(=O)(=O)N(C)C (single isomer, unassigned) [Compound 16]
EC50 [1, 3]: 3 to 100 nM
IC50 [2, 4]: 0.6 to 20 nM

C=C[C@@H]1C[C@]1(NC(=O)[C@@H]1C[C@@H](Oc2nc(N(C)C)cc3cc(OC)ccc23)CN1C(=O)C(Nc1ccccc1)C(C)(C)C)C(=O)NS(=O)(=O)C1CC1 (single isomer, unassigned) [Compound 19B]
EC50 [1, 5]: 1850 nM
IC50 [2, 6]: 1000 nM

C=C[C@@H]1C[C@]1(NC(=O)[C@@H]1C[C@@H](Oc2ncc(OC)c3ccc(Cl)cc23)CN1C(=O)C(Nc1cncnc1)C(C)C)C(=O)NS(=O)(=O)C1CC1 (single isomer, unassigned) [Compound 24A]
EC50 [1, 5]: 593 nM
IC50 [2, 6]: 26 nM

C=C[C@@H]1C[C@]1(NC(=O)[C@@H]1C[C@@H](Oc2ncc(OC)c3ccc(Cl)cc23)CN1C(=O)C(Nc1ccc(C)nc1)C(C)(C)C)C(=O)NS(=O)(=O)C1CC1 (single isomer, unassigned) [Compound 26B]
EC50 [1, 5]: 3190 nM
IC50 [2, 6]: 1300 nM

C=C[C@@H]1C[C@]1(NC(=O)[C@@H]1C[C@@H](Oc2ncc(OC)c3ccc(Cl)cc23)CN1C(=O)C(Nc1cncc(C(F)(F)F)c1)C(C)(C)C)C(=O)NS(=O)(=O)C1CC1 (single isomer, unassigned) [Compound 27A]
EC50 [1, 5]: 4.09 nM
IC50 [2, 6]: 3 nM

C=C[C@@H]1C[C@]1(NC(=O)[C@@H]1C[C@@H](Oc2ncc(OC)c3ccc(Cl)cc23)CN1C(=O)C(Nc1cc(C)nc(C)c1)C(C)(C)C)C(=O)NS(=O)(=O)C1CC1 (single isomer, unassigned) [Compound 29A]
EC50 [1, 3]: 100 to 1000 nM
IC50 [2, 4]: 0.6 to 20 nM

C=C[C@@H]1C[C@]1(NC(=O)[C@@H]1C[C@@H](Oc2ncc(OC)c3ccc(Cl)cc23)CN1C(=O)C(Nc1cc(C)nc(C)c1)C(C)(C)C)C(=O)NS(=O)(=O)C1CC1 (single isomer, unassigned) [Compound 29B]
EC50 [1, 5]: 14900 nM
IC50 [2, 6]: 249 nM

C=C[C@@H]1C[C@]1(NC(=O)[C@@H]1C[C@@H](Oc2ncc(OC)c3ccc(Cl)cc23)CN1C(=O)C(Nc1cc(Cl)cc(Cl)n1)C(C)(C)C)C(=O)NS(=O)(=O)C1CC1 (single isomer, unassigned) [Compound 32A]
EC50 [1, 5]: 3.59 nM
IC50 [2, 6]: 1 nM

C=C[C@@H]1C[C@]1(NC(=O)[C@@H]1C[C@@H](Oc2ncc(OC)c3ccc(Cl)cc23)CN1C(=O)C(Nc1cc(Cl)cc(Cl)n1)C(C)(C)C)C(=O)NS(=O)(=O)C1CC1 (single isomer, unassigned) [Compound 32B]
EC50 [1, 3]: > 1000 nM
IC50 [2, 4]: > 200 nM

C=C[C@@H]1C[C@]1(NC(=O)[C@@H]1C[C@@H](Oc2nc(N(C)C)cc3c(OC)cccc23)CN1C(=O)C(Nc1cccc(C)n1)C(C)(C)C)C(=O)NS(=O)(=O)C1CC1 (single isomer, unassigned) [Compound 38A]
EC50 [1, 3]: 3 to 100 nM
IC50 [2, 4]: 0.6 to 20 nM

C=C[C@@H]1C[C@]1(NC(=O)[C@@H]1C[C@@H](Oc2nc(N(C)C)cc3c(OC)cccc23)CN1C(=O)C(Nc1cccc(C)n1)C(C)(C)C)C(=O)NS(=O)(=O)C1CC1 (single isomer, unassigned) [Compound 38B]
EC50 [1, 5]: 7710 nM
IC50 [2, 6]: 5000 nM

C=C[C@@H]1C[C@]1(NC(=O)[C@@H]1C[C@@H](Oc2ncc(OC)c3ccc(Cl)cc23)CN1C(=O)C(Nc1cccc(OC)c1)C(C)(C)C)C(=O)NS(=O)(=O)C1CC1 (single isomer, unassigned) [Compound 201A]
EC50 [1, 5]: 4.23 nM
IC50 [2, 6]: 4 nM

C=C[C@@H]1C[C@]1(NC(=O)[C@@H]1C[C@@H](Oc2ncc(OC)c3ccc(Cl)cc23)CN1C(=O)C(Nc1cccc(OC)c1)C(C)(C)C)C(=O)NS(=O)(=O)C1CC1 (single isomer, unassigned) [Compound 201B]
EC50 [1, 3]: 3 to 100 nM
IC50 [2, 4]: 20 to 200 nM

C=CC1CC1(NC(=O)C1CC(Oc2ncc(OC)c3ccc(Cl)cc23)CN1C(=O)C(Nc1ccccc1)C(C)(C)C)C(=O)NS(=O)(=O)C1CC1 (single isomer, unassigned; isomer 3) [213 first isomer]
EC50 [1, 7]: 100 to 1000 nM
IC50 [2, 4]: > 200 nM

C=CC1CC1(NC(=O)C1CC(Oc2ncc(OC)c3ccc(Cl)cc23)CN1C(=O)C(Nc1ccccc1)C(C)(C)C)C(=O)NS(=O)(=O)C1CC1 (single isomer, unassigned; isomer 3) [213 second isomer]
EC50 [1, 7]: 3 to 100 nM
IC50 [2, 4]: 0.6 to 20 nM

C=C[C@@H]1C[C@]1(NC(=O)[C@@H]1C[C@@H](Oc2ncc(OC)c3ccc(Cl)cc23)CN1C(=O)[C@@H](Nc1cccc(C(=O)NC(C)(C)c2ccccc2)c1)C(C)(C)C)C(=O)NS(=O)(=O)C1CC1 (single isomer, unassigned; isomer 3) [216 first isomer]
EC50 ([1]; HCV replicon cell assay, activity range class, read-out: HCV Pro Replicon (EC50)): 3 to 100 nM
IC50 ([2]; NS3/4A BMS strain; activity range class; read-out: HCV Protease (IC50)): 0.6 to 20 nM
